From ChEMBL document CHEMBL5113463, “Discovery and preclinical evaluations of JBD0131, a novel nitrodihydro-imidazooxazole anti-tuberculosis agent” (Bioorg Med Chem Lett, 2022)
Values after ≈ are worked out from the molar mass of the structure shown.

test system: Mycobacterium tuberculosis; assay: Antimycobacterial activity against clinical isolate multidrug resistant Mycobacterium tuberculosis H37Rv assessed as bacterial growth inhibition; assay type: functional

| SMILES | MIC50 [µg/mL] | MIC90 [µg/mL] |
| --- | --- | --- |
| C[C@]1(COc2ccc(N3CCC(Oc4ccc(OC(F)(F)F)cc4)CC3)cc2)Cn2cc([N+](=O)[O-])nc2O1 | 0.002 (≈ 0.00374 µM) | 0.003 (≈ 0.00561 µM) |
| NNC(=O)c1ccncc1 [ISONIAZID] | 4.37 (≈ 31.9 µM) | > 40 |
| CO[C@H]1/C=C/O[C@@]2(C)Oc3c(C)c(O)c4c(O)c(c(/C=N/N5CCN(C)CC5)c(O)c4c3C2=O)NC(=O)/C(C)=C\C=C\[C@H](C)[C@H](O)[C@@H](C)[C@@H](O)[C@@H](C)[C@H](OC(C)=O)[C@@H]1C [RIFAMPIN] | > 40 | > 40 |
| C[C@]1(CN2Cc3nc(-c4ccc(F)cc4)sc3C2)CN=C(N)O1 | 0.011 (≈ 0.0331 µM) | 0.035 (≈ 0.105 µM) |
| NC[C@H]1O[C@H](O[C@H]2[C@H](O)[C@@H](O[C@H]3O[C@H](CO)[C@@H](O)[C@H](N)[C@H]3O)[C@H](N)C[C@@H]2N)[C@H](O)[C@@H](O)[C@@H]1O [KANAMYCIN] | 1.24 (≈ 2.55 µM) | > 40 |
